Results reported in US20250011311A1, “AMIDO HETEROAROMATIC COMPOUNDS” (AstraZeneca AB, priority 2022, published 2025).

Experiments:
[1] = molecular target: over expressed HSD17β13 in HEK293S cells (Homo sapiens (Human), UniProt Q7Z5P4); assay: In Vitro 17bHSD13 Cell Assay; type: cell-based; settings: HEK293S cells over expressing HSD17β13; estradiol to estrone conversion, 18 h, LC-MS/MS; read-out: 17bHSD1713 Cell assay IC50
Method: In Vitro 17bHSD13 Cell Assay
Inhibition of 17bHSD13 was measured in a cell-based assay with over expressed HSD17β13 in HEK293S cells, measuring estradiol to estrone conversion by LCMS/MS.
Samples were analyzed using LC-MS/MS.
(§1) SCIEX LC-MS/MS system: Sample was injected with CTC analytical injector, SHIMATZU LC pumps LC20 and analysed on the SCIEX API 5000 LCMSMS system with the following settings. […] The mobile phases consist of A (water with 0.2% formic acid) and B (acetonitrile with 0.2% formic acid). The LC gradient profile is as follows: 50% B during 0 to 0.5 min, a linear increase to 100% B during 0.5 to 1 min, hold at 100% B during 1 to 1.6 min then back to 50% B from 1.6 to 2 min. […] Detection was performed on a API 5000 LC/MS/MS system with a triple quadrupole mass spectrometer, a TURBO V ion source, in multiple reaction monitoring (MRM) mode at positive polarity with APCI probe. […] The dwell times were 100 ms for each transition and a depolarization and collision energy of 100 and 40, respectively. Data from MS signals was using area under curve (AUC). Ratio=Estrone/(Estrone+Estradiol)
(§2) […] […] was used for curve fitting and calculation of IC50 values.
(§3) Compound effect was calculated with the formula below;
(§4) where X represents the effect in the presence of test compound, min is DMSO and max is the maximum inhibition of enzyme using a known inhibitor as control.

[2] = molecular target: recombinant 17bHSD13 (N2-K300) (Homo sapiens (Human), UniProt Q7Z5P4); assay: In Vitro 17bHSD13 Enzyme Assay; type: biochemical; settings: 80 nM 17bHSD13, 0.5 mM NAD, 20 μM Estradiol, 2.5 h; estradiol to estrone by LC-MS/MS
Sequence of recombinant 17bHSD13 (N2-K300) (Q7Z5P4 2-300): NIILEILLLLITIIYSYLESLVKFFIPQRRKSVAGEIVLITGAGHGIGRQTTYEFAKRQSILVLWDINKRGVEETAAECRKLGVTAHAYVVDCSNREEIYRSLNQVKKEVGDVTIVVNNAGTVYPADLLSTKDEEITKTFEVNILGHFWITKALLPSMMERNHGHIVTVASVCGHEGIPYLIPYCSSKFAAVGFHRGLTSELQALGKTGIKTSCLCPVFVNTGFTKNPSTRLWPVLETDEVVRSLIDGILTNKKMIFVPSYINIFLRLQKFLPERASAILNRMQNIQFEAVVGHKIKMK
Method: In Vitro 17bHSD13 Enzyme Assay
The enzyme reaction was initiated by addition, using CERTUS-FLEX dispenser (GYGER), of 20 μl of substrate solution containing NAD (SIGMA, N1511) and Estradiol (SIGMA, E8875). […] Final assay conditions were 80 nM of 17bHSD13, 0.5 mM of NAD, 20 μM Estradiol and various concentrations of compound in buffer (5 mM EDTA (TEKNOVA E0306), 0.01% DDM (AFFYMETRIX D310) in 50 mM Tris-Cl, pH 7.4).
as §1, with “analyzed” for “analysed”
as §2, §3, §4

Sequence of over expressed HSD17β13 in HEK293S cells (Q7Z5P4 20-300): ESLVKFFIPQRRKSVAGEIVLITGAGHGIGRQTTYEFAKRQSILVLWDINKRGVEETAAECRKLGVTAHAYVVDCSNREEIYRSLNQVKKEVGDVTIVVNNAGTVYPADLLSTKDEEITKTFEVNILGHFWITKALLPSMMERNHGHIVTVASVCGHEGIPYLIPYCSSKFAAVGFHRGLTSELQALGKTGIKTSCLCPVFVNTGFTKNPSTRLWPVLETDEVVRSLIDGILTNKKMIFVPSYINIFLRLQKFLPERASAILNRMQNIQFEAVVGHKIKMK

Row | SMILES | IC50 [1] | IC50 [2]
1 | Cc1cc2nc(CN(C)C(=O)c3noc(-c4cc(F)c(F)c(O)c4F)n3)[nH]c2cc1C [Example 71, N-((5,6-Dimethyl-1H-benzo[d]imidazol-2-yl)methyl)-N-methyl-5-(2,4,5-trifluoro-3-hydroxyphenyl)-1,2,4-oxadiazole-3-carboxamide] | 28.4 µM | 0.068 µM
2 | CN(C(=O)c1noc(-c2cc(F)c(F)c(O)c2F)n1)c1cccc(C#N)c1 [Example 63, N-(3-Cyanophenyl)-N-methyl-5-(2,4,5-trifluoro-3-hydroxyphenyl)-1,2,4-oxadiazole-3-carboxamide] | 1.19 µM | 
3 | CN(C)C(=O)C1CCCN1C(=O)c1ccc(-c2cc(F)c(F)c(O)c2F)s1 (stereo not shown) [Example 105, N,N-Dimethyl-1-(5-(2,4,5-trifluoro-3-hydroxyphenyl)thiophene-2-carbonyl)pyrrolidine-2-carboxamide] | 1.26 µM | 3.76 µM
4 | COc1ccc(N2CCN(C(=O)c3noc(-c4cc(F)c(F)c(O)c4F)n3)CC2)cc1 [Example 55, (4-(4-Methoxyphenyl)piperazin-1-yl)(5-(2,4,5-trifluoro-3-hydroxyphenyl)-1,2,4-oxadiazol-3-yl)methanone] | 0.96 µM | 0.112 µM
5 | O=C(c1noc(-c2cc(F)c(F)c(O)c2F)n1)N1Cc2ccc(F)cc2C1 [Example 65, (5-Fluoroisoindolin-2-yl)(5-(2,4,5-trifluoro-3-hydroxyphenyl)-1,2,4-oxadiazol-3-yl)methanone] | 0.2 µM | 0.134 µM
6 | N#Cc1c(C(=O)N2CCC(n3cc(-c4ccc(F)cc4)[nH]c3=O)CC2)noc1-c1cc(F)c(F)c(O)c1F [Example 24, 3-(4-(4-(4-Fluorophenyl)-2-oxo-2,3-dihydro-1H-imidazol-1-yl)piperidine-1-carbonyl)-5-(2,4,5-trifluoro-3-hydroxyphenyl)isoxazole-4-carbonitrile] | 3.5 µM | 0.198 µM
7 | Cc1cccnc1CN(C(=O)c1noc(-c2cc(F)c(F)c(O)c2F)n1)C(C)C [Example 75, N-Isopropyl-N-((3-methylpyridin-2-yl)methyl)-5-(2,4,5-trifluoro-3-hydroxyphenyl)-1,2,4-oxadiazole-3-carboxamide] | 5.6 µM | 0.268 µM
8 | O=C(NCc1ccnn1C1CCCCC1)c1cnc(-c2ccc(F)c(O)c2)o1 [Example 100, N-((1-Cyclohexyl-1H-pyrazol-5-yl)methyl)-2-(4-fluoro-3-hydroxyphenyl)oxazole-5-carboxamide] | 18.1 µM | 5.34 µM
9 | CN(C(=O)c1nnc(-c2ccc(F)c(O)c2)o1)c1nnnn1-c1ccccc1 [Example 91, 5-(4-Fluoro-3-hydroxyphenyl)-N-methyl-N-(1-phenyl-1H-tetrazol-5-yl)-1,3,4-oxadiazole-2-carboxamide] | > 50 µM | 0.166 µM
10 | N#Cc1c(C(=O)N2CC(C(F)(F)F)C2)noc1-c1cc(F)c(F)c(O)c1F [Example 28, 5-(2,4,5-Trifluoro-3-hydroxyphenyl)-3-(3-(trifluoromethyl)azetidine-1-carbonyl)isoxazole-4-carbonitrile] | 4.13 µM | 0.368 µM
